Each molecule was assayed against ABL1 (64-515) (Homo sapiens (Human), UniProt P00519) (assay: Radio ABL1 (64-515) assay (radiometric filter-binding)).
Sequence of ABL1 (64-515) (P00519 64-515): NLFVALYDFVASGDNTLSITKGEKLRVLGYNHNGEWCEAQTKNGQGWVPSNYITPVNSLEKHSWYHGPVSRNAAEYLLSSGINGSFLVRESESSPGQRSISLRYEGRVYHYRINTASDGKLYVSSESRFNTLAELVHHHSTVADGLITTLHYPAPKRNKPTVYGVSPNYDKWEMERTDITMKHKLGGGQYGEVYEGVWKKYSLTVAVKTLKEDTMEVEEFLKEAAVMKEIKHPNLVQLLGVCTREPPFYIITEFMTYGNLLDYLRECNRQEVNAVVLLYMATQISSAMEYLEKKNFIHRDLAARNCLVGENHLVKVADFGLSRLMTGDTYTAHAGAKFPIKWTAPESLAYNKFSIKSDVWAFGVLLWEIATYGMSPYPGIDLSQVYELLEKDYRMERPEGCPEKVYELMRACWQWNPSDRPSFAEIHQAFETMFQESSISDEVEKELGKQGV
Assay type: biochemical
Description: For determination of ABL kinase activity, the radiometric filter-binding assay was used. […] Pre-incubation of enzyme with compounds (when stated) was performed by exposing the enzyme to compounds prior to addition of the substrate mixture (ATP and/or peptide substrate). […] Millipore, Volketswil, Switzerland) prepared according to the manufacturer's instructions. Filter-plates were washed 3× with 0.5% H3PO4, followed by addition of 30 μL scintillation cocktail (Microscint, Perkin Elmer) per well and then analysed in a TopCount NXT scintillation counter (Perkin Elmer). Results were expressed as IC50 values.
In the case of `O=C(Nc1ccc(OC(F)(F)F)cc1)c1cccc(-c2cnc(OCCO)nc2)c1` [Example 2, 3-(2-(2-Hydroxyethoxy)pyrimidin-5-yl)-N-(4-(trifluoromethoxy)phenyl)benzamide], the IC50 is reported as 6.5 nM.
Molecule `COc1ccc(C(=O)Nc2ccc(OC(F)(F)F)cc2)cc1-c1ccc2c(c1)OCO2` [Example 35, 3-(Benzo[d][1,3]dioxol-5-yl)-4-methoxy-N-(4-(trifluoromethoxy)phenyl)benzamide] has an IC50 of 9.9 nM.
`O=C(Nc1ccc(OC(F)(F)F)cc1)c1cccc(-c2ccc(CN3CCCC3)s2)c1` [Example 7, 3-(5-(Pyrrolidin-1-ylmethyl)thiophen-2-yl)-N-(4-(trifluoromethoxy)phenyl)benzamide] gave an IC50 of less than 3 nM.
With `O=C(Nc1ccc(OC(F)(F)F)cc1)c1cncc(-c2cccnc2O)c1` [Example 63, 2′-Hydroxy-N-(4-(trifluoromethoxy)phenyl)-[3,3′-bipyridine]-5-carboxamide] the IC50 was 77 nM.
`CC(C)CN1CCN(CCOc2ccc(C(=O)Nc3ccc(OC(F)(F)F)cc3)cc2-c2cncnc2)CC1` [Example 39, 4-(2-(4-Isobutylpiperazin-1-yl)ethoxy)-3-(pyrimidin-5-yl)-N-(4-(trifluoromethoxy)phenyl)benzamide] showed an IC50 of less than 3 nM.
`O=C(Nc1ccc(OC(F)(F)F)cc1)c1ccc(F)c(-c2cccnc2)c1` [Example 20, 4-fluoro-3-(pyridin-3-yl)-N-(4-(trifluoromethoxy)phenyl)benzamide] was tested, and the IC50 was 13 nM.
In the case of `O=C(Nc1ccc(OC(F)(F)F)cc1)c1cc(-c2cncnc2)ccn1` [Example 72, 4-(pyrimidin-5-yl)-N-(4-(trifluoromethoxy)phenyl)picolinamide], the IC50 is reported as 650 nM.
`COc1ccc(C(=O)Nc2ccc(OC(F)(F)F)cc2)cc1-c1ccncc1` [Example 33, 4-methoxy-3-(pyridin-4-yl)-N-(4-(trifluoromethoxy)phenyl)benzamide] was tested, and the IC50 was 8.7 nM.
Work on `O=C(Nc1ccc(OC(F)(F)F)cc1)c1cncc(-c2cncnc2)n1` [Example 71, 6-(pyrimidin-5-yl)-N-(4-(trifluoromethoxy)phenyl)pyrazine-2-carboxamide] yielded an IC50 of 660 nM.
With `O=C(Nc1ccc(OC(F)(F)F)cc1)c1ccnc(-c2cncnc2)c1` [Example 70, 2-(Pyrimidin-5-yl)-N-(4-(trifluoromethoxy)phenyl)isonicotinamide] the IC50 was 13 nM.
Work on `COc1ncc(-c2cc(C(=O)Nc3ccc(OC(F)(F)F)cc3)ccn2)cn1` [Example 69, 2-(2-Methoxypyrimidin-5-yl)-N-(4-(trifluoromethoxy)phenyl)isonicotinamide] yielded an IC50 of less than 3 nM.
Molecule `O=C(Nc1ccc(OC(F)(F)F)cc1)c1cccc(-n2ccnc2)c1` [Example 8, 3-(1H-Imidazol-1-yl)-N-(4-(trifluoromethoxy)phenyl)benzamide] has an IC50 of 1.9 nM.
`Cn1cc(-c2cc(C(=O)Nc3ccc(OC(F)(F)F)cc3)ccc2F)cn1` [Example 22, 4-fluoro-3-(1-methyl-1H-pyrazol-4-yl)-N-(4-(trifluoromethoxy)phenyl)benzamide] gave an IC50 of 35 nM.
`O=C(Nc1ccc(OC(F)(F)F)cc1)c1ccc(O)c(-c2cncnc2)c1` [Example 41, 4-Hydroxy-3-(pyrimidin-5-yl)-N-(4-(trifluoromethoxy)phenyl)benzamide] gave an IC50 of 13 nM.
Work on `COc1ncc(-c2cc(C(=O)Nc3ccc(OC(F)(F)F)cc3)ccc2Cl)cn1` [Example 25, 4-chloro-3-(2-methoxypyrimidin-5-yl)-N-(4-(trifluoromethoxy)phenyl)benzamide] yielded an IC50 of 8.1 nM.
`COc1ccc(C(=O)Nc2ccc(OC(F)(F)F)cc2)cc1-c1cccnc1` [Example 31, 4-methoxy-3-(pyridin-3-yl)-N-(4-(trifluoromethoxy)phenyl)benzamide] gave an IC50 of 3.2 nM.
With `N#Cc1cncc(-c2cccc(C(=O)Nc3ccc(OC(F)(F)F)cc3)c2)c1` [Example 3, 3-(5-Cyanopyridin-3-yl)-N-(4-(trifluoromethoxy)phenyl)benzamide] the IC50 was 3.9 nM.
`COc1ccc(C(=O)Nc2ccc(OC(F)(F)F)cc2)cc1-c1ccc(F)nc1` [Example 32, 3-(6-fluoropyridin-3-yl)-4-methoxy-N-(4-(trifluoromethoxy)phenyl)benzamide] was tested, and the IC50 was 3.4 nM.

Source: US9315489B2, “Compounds and compositions for inhibiting the activity of ABL1, ABL2 and BCR-ABL1” (Novartis AG, priority 2012, dated 2016)
